Data as given in ChEMBL document CHEMBL5370609, “Amidine-Based Cationic Conjugated Oligoelectrolytes with Antimicrobial Activity against Pseudomonas aeruginosa Biofilms” (J Med Chem, 2023).
≈ marks a conversion by molar mass, not a printed value. Calls of active or inactive are those of the source. The rule behind the calls is not given here.

What was measured:
Escherichia coli = experiment: Antibacterial activity against Escherichia coli ATCC 25922 assessed as inhibition of bacterial growth incubated for overnight by broth microdilution method; assay type: functional
Klebsiella pneumoniae = experiment: Antibacterial activity against Klebsiella pneumoniae ATCC 700603 assessed as inhibition of bacterial growth incubated overnight by broth microdilution method; assay type: functional
Pseudomonas aeruginosa [1] = experiment: Antibacterial activity against Pseudomonas aeruginosa ATCC 27853 assessed as inhibition of bacterial growth incubated overnight by broth microdilution method; assay type: functional
Pseudomonas aeruginosa [2] = experiment: Inhibition of biofilm formation in Pseudomonas aeruginosa PAO1 at below MIC incubated for 24 hrs by crystal violet staining based analysis; assay type: functional, organism-based
Pseudomonas aeruginosa [3] = experiment: Inhibition of biofilm formation in Pseudomonas aeruginosa PAO1 incubated for 24 hrs by crystal violet staining based analysis; assay type: functional
Pseudomonas aeruginosa [4] = experiment: Antibiofilm activity against preformed biofilm in Pseudomonas aeruginosa PAO1 assessed as reduction in biofilm viability upto 1024 ug/ml incubated for 24 hrs by BacTiter Glo reagent based luminescence analysis; assay type: functional, organism-based; details: dose <= 1024.0 µg/ml
Staphylococcus aureus = experiment: Antibacterial activity against Staphylococcus aureus ATCC 29213 assessed as inhibition of bacterial growth incubated overnight by broth microdilution method; assay type: functional
[5] = Cytotoxicity against human HepG2 cells assessed as reduction in cell viability incubated for 24 hrs by MTT assay; assay type: toxicity, cell-based
[6] = Selectivity index, IC50 for cytotoxicity against human HepG2 cells to MIC for antibacterial activity against Pseudomonas aeruginosa ATCC 27853 assessed as inhibition of bacterial growth; assay type: toxicity, cell-based; details: read-out: Selectivity Index
HEK293 = experiment: Cytotoxicity against HEK293 cells assessed as reduction in cell viability incubated for 24 hrs by CellTiter-Glo reagent based luminescence assay; assay type: toxicity; details: human, hek293, 24 h
NIH3T3 = experiment: Cytotoxicity against mouse 3T3 cells assessed as reduction in cell viability incubated for 24 hrs by CellTiter-Glo reagent based luminescence assay; assay type: toxicity; details: nih3t3, 24 h
[7] = Hemolytic activity in human blood assessed as hemolysis at 492 ug/ml incubated for 45 mins by absorbance based plate reader analysis relative to control; assay type: toxicity, tissue-based; details: at 492 µg/mL, read-out: Activity
[8] = Dissociation constant, pKa of compound at pH 7.4 by potentiometric titration method; assay type: physicochemical
Pseudomonas aeruginosa [9] = experiment: Antibacterial activity against Pseudomonas aeruginosa PAO1 assessed as inhibition of bacterial growth incubated overnight by broth microdilution method; assay type: functional
Pseudomonas aeruginosa [10] = experiment: Bactericidal activity against Pseudomonas aeruginosa PAO1 assessed as reduction in colony forming units at 4 times of MIC incubated for 1 hrs by time-kill kinetics assay relative to control; assay type: functional; design: scale not given: the % may be the effect or the level left
Pseudomonas aeruginosa [11] = experiment: Bactericidal activity against Pseudomonas aeruginosa PAO1 assessed as log reduction in colony forming units at 4 times of MIC incubated for 1 hrs by time-kill kinetics assay; assay type: functional
Pseudomonas aeruginosa [12] = experiment: Bactericidal activity against Pseudomonas aeruginosa PAO1 assessed as reduction in viable bacteria at 4 times of MIC measured at 8 to 48 hrs by time-kill kinetics assay; assay type: functional, organism-based; details: time 8-48 hrs
Pseudomonas aeruginosa [13] = experiment: Bactericidal activity against Pseudomonas aeruginosa PAO1 assessed as bacterial eradication at 8 times of MIC measured at 8 hrs by time-kill kinetics assay relative to control; assay type: functional
Pseudomonas aeruginosa [14] = experiment: Bactericidal activity against Pseudomonas aeruginosa PAO1 assessed as reduction in bacterial growth at 8 times of MIC measured after 48 hrs by time-kill kinetics assay; assay type: functional, organism-based
Pseudomonas aeruginosa [15] = experiment: Induction of resistance development in Pseudomonas aeruginosa PAO1 assessed as fold increase in MIC measured after consecutive passages for 21 days by serial passaging assay relative to day 1 MIC; assay type: functional; details: time 21 day
Pseudomonas aeruginosa [16] = experiment: Induction of spontaneous resistance development in Pseudomonas aeruginosa PAO1 assessed as frequency of resistance at 2 to 4 times of MIC incubated for 48 hrs by FoR assay; assay type: functional
Pseudomonas aeruginosa [17] = experiment: Inhibition of biofilm formation in Pseudomonas aeruginosa PAO1 at below MIC incubated for 24 hrs by crystal violet staining based analysis relative to control; assay type: functional
Pseudomonas aeruginosa [18] = experiment: Antibiofilm activity against preformed biofilm in Pseudomonas aeruginosa PAO1 assessed as biofilm killing at 128 ug/ml incubated for 24 hrs by BacTiter Glo reagent based luminescence analysis; assay type: functional, organism-based; details: dose 128.0 µg/ml
Pseudomonas aeruginosa [19] = experiment: Antibiofilm activity in Pseudomonas aeruginosa PAO1 assessed as eradication of preformed biofilm at 256 ug/ml incubated for 24 hr by BacTiter Glo reagent based luminescence analysis; assay type: functional, organism-based; details: dose 256.0 µg/ml
Pseudomonas aeruginosa [20] = experiment: Antibacterial activity against Pseudomonas aeruginosa PAO1 infected in C57BL/6 mouse wound model assessed as reduction in bacterial count on wound bed pre-infected with bacteria for 4 hrs followed by topical administration of compounds for 20 hrs and measured 24 hrs post infection; assay type: functional, organism-based; details: dose 0.1-2 %
Pseudomonas aeruginosa [21] = experiment: Antibacterial activity against Pseudomonas aeruginosa PAO1 infected in C57BL/6 mouse wound model assessed as log reduction in colony forming unit on wound bed at 0.5 % w/v pre-infected with bacteria for 4 hrs followed by topical administration of compounds for 20 hrs and measured 24 hrs post infection; assay type: functional
Pseudomonas aeruginosa [22] = experiment: Antibacterial activity against Pseudomonas aeruginosa PAO1 infected in C57BL/6 mouse wound model assessed as log reduction in colony forming unit on wound bed at 2 % w/v pre-infected with bacteria for 4 hrs followed by topical administration of compounds for 20 hrs and measured 24 hrs post infection; assay type: functional
Pseudomonas aeruginosa [23] = experiment: Antibacterial activity against Pseudomonas aeruginosa PAO1 infected in C57BL/6 mouse wound model assessed as reduction in bacterial count on wound bed at 2 to 8 % w/v pre-infected with bacteria for 24 hrs followed by topical administration of compounds for 24 hrs; assay type: functional, organism-based; details: dose 2-8 %

COLISTIN
MIC (Escherichia coli): 2 µg/mL
MIC (Klebsiella pneumoniae): 2 µg/mL
MIC (Pseudomonas aeruginosa [1]): 2 µg/mL

O=C(O)c1cn(C2CC2)c2cc(N3CCNCC3)c(F)cc2c1=O [CIPROFLOXACIN]
inhibition (Pseudomonas aeruginosa [2]): inactive
MBIC50 (Pseudomonas aeruginosa [3]): 2 µg/mL
MBIC90 (Pseudomonas aeruginosa [3]): 2 µg/mL
Activity (Pseudomonas aeruginosa [4]): inactive

CC(=O)O.CC(=O)O.CC(=O)O.CC(=O)O.N=C(NCCCOc1cc(/C=C/c2ccc(/C=C/c3cc(OCCCNC(=N)C4CC4)cc(OCCCNC(=N)C4CC4)c3)cc2)cc(OCCCNC(=N)C2CC2)c1)C1CC1
MIC (Staphylococcus aureus): 0.5 µg/mL
IC50 at 24 h [5]: 1020 µg/mL
selectivity ratio [6]: 512
Activity (HEK293): Non-Toxic
Activity (NIH3T3): Non-Toxic
hemolysis at 0.75 h, 492 ug/ml [7]: 0.2%
pKa [8]: 10
MIC (Pseudomonas aeruginosa [9]): 8 µg/mL
Activity (Pseudomonas aeruginosa [10]): 99.9%
log(activity) (Pseudomonas aeruginosa [11]): 3
Activity (Pseudomonas aeruginosa [12]): inactive
Activity (Pseudomonas aeruginosa [13]): 100%
Activity (Pseudomonas aeruginosa [14]): Active
fold change (FC) (Pseudomonas aeruginosa [15]): 4
Activity (Pseudomonas aeruginosa [16]): <1.3 10^-8No_unit
inhibition (INH) (Pseudomonas aeruginosa [17]): ~31%
MBIC50 (Pseudomonas aeruginosa [3]): 1 µg/mL
MBIC90 (Pseudomonas aeruginosa [3]): 4 µg/mL
Activity (Pseudomonas aeruginosa [18]): Active
Activity (Pseudomonas aeruginosa [19]): Active
Activity (Pseudomonas aeruginosa [20]): Dose-Dependent Effect
log(activity) (Pseudomonas aeruginosa [21]): 1.5
log(activity) (Pseudomonas aeruginosa [22]): 2.8
Activity (Pseudomonas aeruginosa [23]): Active

CC(=O)O.CC(=O)O.CC(=O)O.CC(=O)O.CCC(=N)N(CCCOc1cc(/C=C/c2ccc(/C=C/c3cc(OCCCN(C(=N)CC)C4CC4)cc(OCCCN(C(=N)CC)C4CC4)c3)cc2)cc(OCCCN(C(=N)CC)C2CC2)c1)C1CC1
MIC (Escherichia coli): 2 µg/mL
MIC (Staphylococcus aureus): 1 µg/mL
MIC (Klebsiella pneumoniae): 8 µg/mL
MIC (Pseudomonas aeruginosa [1]): 16 µg/mL
IC50 at 24 h [5]: 128 µg/mL
selectivity ratio [6]: 8

CC(=O)O.CC(=O)O.CC(=O)O.CC(=O)O.CCCN(CCCOc1cc(/C=C/c2ccc(/C=C/c3cc(OCCCN(CCC)C(=N)C4CC4)cc(OCCCN(CCC)C(=N)C4CC4)c3)cc2)cc(OCCCN(CCC)C(=N)C2CC2)c1)C(=N)C1CC1
MIC (Staphylococcus aureus): 1 µg/mL
IC50 at 24 h [5]: 16 µg/mL
selectivity ratio [6]: 0.5

CC(=O)O.CC(=O)O.CC(=O)O.CC(=O)O.CCC(=N)N(C)CCCOc1cc(/C=C/c2ccc(/C=C/c3cc(OCCCN(C)C(=N)CC)cc(OCCCN(C)C(=N)CC)c3)cc2)cc(OCCCN(C)C(=N)CC)c1
MIC (Escherichia coli): 1 µg/mL
MIC (Staphylococcus aureus): 1 µg/mL
MIC (Klebsiella pneumoniae): 16 µg/mL
MIC (Pseudomonas aeruginosa [1]): 8 µg/mL
IC50 at 24 h [5]: > 1020 µg/mL
selectivity ratio [6]: > 128

CC[C@H]1OC(=O)[C@H](C)[C@@H](O[C@H]2C[C@@](C)(OC)[C@@H](O)[C@H](C)O2)[C@H](C)[C@@H](O[C@@H]2O[C@H](C)C[C@H](N(C)C)[C@H]2O)[C@](C)(O)C[C@@H](C)C(=O)[C@H](C)[C@@H](O)[C@]1(C)O [ERYTHROMYCIN]
MIC (Staphylococcus aureus): 0.25 µg/mL (≈ 0.341 µM)
